From ChEMBL document CHEMBL1201862, “PubChem BioAssay data set” (2004)
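Results reflect a 48-hour exposure of cells in 96-well plates to compound at five concentrations. GI50: concentration for 50% inhibition of growth.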 The source made the active and inactive calls. Rule as the data show it: active = GI50 up to about 1.1 µM and inactive = higher.

How the values were obtained:
Assay in all cases: inhibition of tumour cell growth, NCI panel, 48 h
[1] = test system: HT-29
[2] = test system: HOP-92
[3] = test system: IGROV-1
[4] = test system: OVCAR-4
[5] = test system: Malme-3M
[6] = test system: NCI-H226
[7] = test system: HCC 2998
[8] = test system: 786-0
[9] = test system: OVCAR-5
[10] = test system: SW-620
[11] = test system: K562
[12] = test system: RPMI-8226
[13] = test system: OVCAR-3
[14] = test system: M14
[15] = test system: SK-MEL-5
[16] = test system: UACC-62
[17] = test system: LOX IMVI
[18] = test system: NCI-H522
[19] = test system: RXF 393

Measured: GI50

NC(=S)SCCC(=O)O
inactive: [1] > 100 µM | [2] > 100 µM | [3] > 100 µM | [4] > 100 µM | [5] > 100 µM | [6] > 100 µM | [7] > 100 µM | [8] > 100 µM | [9] > 100 µM | [10] > 100 µM | [11] > 100 µM | [12] > 100 µM | [13] > 100 µM | [14] > 100 µM | [15] > 100 µM | [16] > 100 µM | [17] > 100 µM | [18] > 100 µM

CC(=O)O[C@H]1CCc2c(cc(N)c3c2C(=O)C[C@]2(C)C([C@H](C)CCCC(C)C)CCC32C)C1(C)C (some centres undefined)
inactive: [1] 42.2 µM | [2] > 100 µM | [3] > 100 µM | [4] 92.7 µM | [5] > 100 µM | [6] > 100 µM | [7] > 100 µM | [8] > 100 µM | [9] > 100 µM | [10] > 100 µM | [11] 33.7 µM | [12] > 100 µM | [13] > 100 µM | [19] > 100 µM | [14] > 100 µM | [15] > 100 µM | [16] > 100 µM | [18] > 100 µM

CCCCCCCCCCCCNC(=O)NCC(OCC)OCC
inactive: [1] > 10 µM | [2] > 10 µM | [3] > 10 µM | [4] > 10 µM | [6] > 10 µM | [7] > 10 µM | [8] > 10 µM | [9] > 10 µM | [10] > 10 µM | [11] > 10 µM | [12] > 10 µM | [19] > 10 µM | [14] > 10 µM | [15] > 10 µM | [16] > 10 µM | [17] > 10 µM | [18] > 10 µM

Cc1ccc2c(n1)NC(=O)C(Cc1ccccc1)(N=[N+]=[N-])C2=O (centres undefined)
inactive: [1] > 100 µM | [2] > 100 µM | [3] > 100 µM | [4] > 100 µM | [5] > 100 µM | [6] > 100 µM | [7] > 100 µM | [8] > 100 µM | [9] > 100 µM | [10] > 100 µM | [11] > 100 µM | [13] > 100 µM | [19] > 100 µM | [14] > 100 µM | [16] > 100 µM | [18] > 100 µM

O=c1[nH]nc(Cc2ccc(Cl)cc2)n1/N=C/c1ccco1
inactive: [1] 33.1 µM | [2] 93.8 µM | [4] > 100 µM | [5] > 100 µM | [6] 84.5 µM | [7] > 100 µM | [8] 30.4 µM | [9] > 100 µM | [10] > 100 µM | [11] > 100 µM | [12] > 100 µM | [13] > 100 µM | [19] 26.5 µM | [14] > 100 µM | [16] 74 µM | [18] 58.9 µM

C=C1C(=O)OC2C1C(=O)C/C(C)=C/CCC1(C)OC21 (centres undefined)
inactive: [1] 20.6 µM | [2] 15.2 µM | [3] 20.1 µM | [4] 18.7 µM | [6] 15.8 µM | [7] 18.9 µM | [8] 14 µM | [9] 17.7 µM | [10] 16.4 µM | [11] 5.6 µM | [12] 12.3 µM | [13] 15.1 µM | [19] 15.4 µM | [14] 15.6 µM | [15] 19.3 µM | [16] 25.5 µM | [17] 2.47 µM | [18] 3.63 µM

CC(C)=C[C@@H]1C[C@H](C)c2c(O)cc(C)c3c2C1=C(C)C(=O)C3=O [ELISABATIN A]
inactive: [1] 19.4 µM | [2] 13.4 µM | [3] 16.7 µM | [4] 10.9 µM | [5] 16 µM | [6] 16.3 µM | [7] 21.8 µM | [8] 15.9 µM | [9] 24.7 µM | [10] 16.1 µM | [11] 17.2 µM | [12] 18.2 µM | [13] 14.5 µM | [14] 14 µM | [15] 13.6 µM | [16] 14.7 µM | [17] 16.3 µM | [18] 15.3 µM

O=C1c2cccnc2S(=O)(=O)N1c1ccc(Br)cc1
inactive: [1] > 100 µM | [2] 99.8 µM | [3] > 100 µM | [4] > 100 µM | [5] 73.6 µM | [6] > 100 µM | [8] > 100 µM | [9] > 100 µM | [10] > 100 µM | [11] 41.6 µM | [12] 91.6 µM | [13] > 100 µM | [19] > 100 µM | [14] > 100 µM | [15] > 100 µM | [16] > 100 µM | [17] > 100 µM | [18] > 100 µM

Cc1ccc(-n2nnc3c(NNc4ccccc4)n[nH]c(=O)c32)cc1
inactive: [1] 57.9 µM | [2] 23.1 µM | [4] 36.9 µM | [5] > 100 µM | [6] 70 µM | [7] > 100 µM | [8] 67.3 µM | [9] > 100 µM | [11] 48.3 µM | [12] > 100 µM | [14] > 100 µM | [15] 43.1 µM | [17] > 100 µM | [18] 30.2 µM

O=C(N/N=C/c1ccccc1)c1c(-c2cccnc2)cnc2ccccc12
inactive: [1] 42.1 µM | [2] > 100 µM | [3] 58.7 µM | [4] > 100 µM | [5] > 100 µM | [6] > 100 µM | [7] > 100 µM | [8] > 100 µM | [9] > 100 µM | [10] 59.6 µM | [11] 44.9 µM | [12] > 100 µM | [13] > 100 µM | [19] > 100 µM | [14] > 100 µM | [15] 43.7 µM | [16] 79.8 µM | [18] > 100 µM

c1ccc2c(c1)CCN2CCN1CCc2ccccc21
inactive: [1] > 10 µM | [2] > 10 µM | [3] > 10 µM | [4] > 10 µM | [6] > 10 µM | [7] > 10 µM | [8] > 10 µM | [9] > 10 µM | [10] > 10 µM | [11] > 10 µM | [12] > 10 µM | [13] > 10 µM | [19] > 10 µM | [14] > 10 µM | [15] > 10 µM | [16] > 10 µM | [17] > 10 µM | [18] > 10 µM
